Results: patent US6150355A, “Phenylpiperidine derivative” (Kyowa Hakko Kogyo Co., Ltd., priority 1995, dated 2000)

Tests used:
male mice = experiment: Evaluation Test of Analgesic Activity (acetic acid intraperitoneally, number of risings); assay type: in vivo; details: Mus musculus, po, 10 mg/kg orally, after 1 hour 0.7% acetic acid i.p. 0.1 ml per 10 g, number of risings for 5 minutes, 10 minutes after, vs control, read-out: Inhibition Rate
Method: Evaluation Test of Analgesic Activity
Test compounds (10 mg/kg) were orally administered to groups of male mice, each group consisting of 4 to 12 mice, and after 1 hour, the mice were administered intraperitoneally with a 0.7% acetic acid aqueous solution in a dose of 0.1 ml per weight of 10 g. Then, the number of the risings manifested for 5 minutes 10 minutes after the administration was compared with a control group to calculate inhibition rate.

ddy male mice = experiment: Acute Toxicity Test (minimum lethal dose); assay type: in vivo; details: intraperitoneal, ddy male mice 20±1 g, mortality seven days after administration
Text: Test compounds were intraperitoneally administered to groups of ddy male mice weighing 20±1 g.

SMILES	inhibition in vivo at 10 mg/kg (male mice)	minimum lethal dose (MLD) (ddy male mice)
Cc1ccc2c(c1)C(N1CCC(O)(c3ccccc3)CC1)c1ccccc1CO2 (centres unmarked) [Compound 2, 11-(4-Hydroxy-4-phenylpiperidine-1-yl)-2-methyl-6,11-dihydrodibenzo[b,e] oxepine]	83%	> 100 mg/kg
Cc1cccc(C2(O)CCN(C3c4ccccc4COc4ccc(C)cc43)CC2)c1 (centres unmarked) [Compound 3, 11-[4-Hydroxy-4-(3-methylphenyl)piperidine-1-yl]-2-methyl-6,11-dihydrodibenzo[b,e] oxepine]	90%	> 100 mg/kg
Cc1ccc2c(c1)C(N1CCC(O)(c3cccc(C(F)(F)F)c3)CC1)c1ccccc1CO2 (centres unmarked) [Compound 4, 11-[4-Hydroxy-4-(3-trifluoromethylphenyl)piperidine-1-yl]-2-methyl-6,11-dihydrodibenzo[b,e] oxepine]	96%	> 100 mg/kg
Cc1ccc2c(c1)C(N1CCC(O)(c3ccc(Cl)cc3)CC1)c1ccccc1CO2 (centres unmarked) [Compound 5, 11-[4-(4-Chlorophenyl)-4-hydroxypiperidine-1-yl]-2-methyl-6,11-dihydrodibenzo[b,e] oxepine]	72%	> 100 mg/kg
CCc1ccc2c(c1)C(N1CCC(O)(c3ccccc3)CC1)c1ccccc1CO2 (centres unmarked) [Compound 8, 2-Ethyl-11-(4-hydroxy-4-phenylpiperidine-1-yl)-6,11-dihydrodibenzo[b,e] oxepine]	94%	> 100 mg/kg
OCc1ccc2c(c1)C(N1CCC(O)(c3ccccc3)CC1)c1ccccc1CO2 (centres unmarked) [Compound 19, 11-(4-Hydroxy-4-phenylpiperidine-1-yl)-2-hydroxymethyl-6,11-dihydrodibenzo[b,e] oxepine]	76%	> 100 mg/kg
CC(O)c1ccc2c(c1)C(N1CCC(O)(c3ccccc3)CC1)c1ccccc1CO2 (centres unmarked) [Compound 22, 11-(4-Hydroxy-40phenylpiperidine-1-yl)-2-(1-hydroxyethyl)-6,11-dihydrodibenzo[b,e] oxepine]	100%	> 100 mg/kg
OCc1ccc2c(c1)C(N1CCC(O)(c3cccc(C(F)(F)F)c3)CC1)c1ccccc1CO2 (centres unmarked) [Compound 24, 11-[4-Hydroxy-4-(3-trifluoromethylphenyl)piperidine-1-yl]-2-hydroxymethyl-6,11-dihydrodibenzo[b,e] oxepine]	100%	> 100 mg/kg
Cc1ccc2c(c1)C(N1CCC(O)(c3ccccc3)CC1)c1cccnc1CO2 (centres unmarked) [Compound 27, 5-(4-Hydroxy-4-phenylpiperidine-1-yl)-7-methyl-5,11-dihydrobenzo[3,4-b] oxepinopyridine]	100%	–
